Experimental data published in ChEMBL document CHEMBL3864126, “Identification of SENP1 inhibitors through in silico screening and rational drug design” (Eur J Med Chem, 2016).

Biological target: T1, Sentrin-specific protease 1 (Homo sapiens, UniProt Q9P0U3)
T1 sequence (Q9P0U3 whole entry): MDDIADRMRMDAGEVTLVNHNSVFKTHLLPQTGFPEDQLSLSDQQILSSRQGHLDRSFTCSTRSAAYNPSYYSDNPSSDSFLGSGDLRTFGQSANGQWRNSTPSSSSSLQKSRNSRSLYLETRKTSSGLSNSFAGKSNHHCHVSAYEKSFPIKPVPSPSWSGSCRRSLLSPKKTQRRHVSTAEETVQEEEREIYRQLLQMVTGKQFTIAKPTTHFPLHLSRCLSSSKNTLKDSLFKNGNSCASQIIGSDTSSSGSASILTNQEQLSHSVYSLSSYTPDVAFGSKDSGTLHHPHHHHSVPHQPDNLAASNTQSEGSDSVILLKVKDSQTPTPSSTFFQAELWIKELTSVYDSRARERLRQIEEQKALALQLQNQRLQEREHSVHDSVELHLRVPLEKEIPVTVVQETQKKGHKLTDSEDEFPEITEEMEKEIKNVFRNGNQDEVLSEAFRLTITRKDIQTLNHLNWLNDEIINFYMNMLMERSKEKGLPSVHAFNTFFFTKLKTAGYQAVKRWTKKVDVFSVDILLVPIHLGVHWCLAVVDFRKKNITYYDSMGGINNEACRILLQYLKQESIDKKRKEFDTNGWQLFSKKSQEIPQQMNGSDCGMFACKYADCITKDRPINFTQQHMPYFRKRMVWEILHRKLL
Test: Inhibition of SENP1 catalytic domain (419 to 644 residues) (unknown origin) expressed in Escherichia coli BL21 (DE3) assessed as reduction in deSUMOylation preincubated for 10 mins followed by addition of RanGAP-SUMO as substrate measured after 25 mins by coomassie staining-based SDS-PAGE analysis

O=C(N/N=C/C1CCCCC1)c1cc(Cl)ccc1O
IC50: 14 µM
